Data taken from ChEMBL document CHEMBL4308882, “Synthesis, biological evaluation and molecular dynamic simulations of novel Benzofuran-tetrazole derivatives as potential agents against Alzheimer's disease” (2019).
The source made the active and inactive calls. No cut-off for these calls is given here.

Tests used:
Caenorhabditis elegans [1] = assay: Protection against amyloid beta aggregation-induced paralysis in Caenorhabditis elegans CL4176 harboring temperature-inducible human amyloid beta transgene assessed as inhibition of paralysis at 1 mM pretreated for 48 hrs at 15 degC followed by heat stress stimulation to 25 degC for 35 hrs relative to control; type: functional
Caenorhabditis elegans [2] = assay: Antialzheimer activity in Caenorhabditis elegans CL4176 harboring temperature-inducible human amyloid beta transgene assessed as reduction in amyloid beta aggregation at 1 mM pretreated for 48 hrs at 15 degC followed by heat stress stimulation to 25 degC for 35 hrs by thioflavin-s staining based microscopic analysis; type: functional, organism-based
Caenorhabditis elegans [3] = assay: Antialzheimer activity in Caenorhabditis elegans […] harboring temperature-inducible human amyloid beta transgene assessed as reduction in AChE level at 1 mM pretreated for 48 hrs at 15 degC followed by heat stress stimulation to 25 degC for 35 hrs by amplex red assay; type: functional, organism-based

| Compound | inhibition at 1000 µM (Caenorhabditis elegans [1]) [%] | inhibition (Caenorhabditis elegans [2]) | Activity (Caenorhabditis elegans [3]) |
| --- | --- | --- | --- |
| COc1ccc(NC(c2cn(-c3ccccc3)nc2-c2oc3ccccc3c2C)c2nnnn2C(C)(C)C)cc1 (stereo unspecified) | 67.1 | Active | Active |
| CC(C)(C)n1nnnc1C(Nc1ccc(F)cc1)c1cn(-c2ccccc2)nc1-c1cc2ccccc2o1 (stereo unspecified) | 56.5 | Active | Active |
| Cc1ccc(NC(c2cn(-c3ccc(F)cc3)nc2-c2cc3ccccc3o2)c2nnnn2C(C)(C)C)cc1 (stereo unspecified) | 42.1 | Active | – |
| CC(C)(C)n1nnnc1C(Nc1ccc(C(F)(F)F)c(Br)c1)c1cn(-c2ccccc2)nc1-c1cc2ccccc2o1 (stereo unspecified) | 63.8 | Active | – |
| Cc1ccc(NC(c2cn(-c3ccccc3)nc2-c2cc3ccccc3o2)c2nnnn2C(C)(C)C)cc1F (stereo unspecified) | 45.4 | Active | Active |
| Cc1ccc(NC(c2cn(-c3ccc(Cl)cc3)nc2-c2oc3ccccc3c2C)c2nnnn2C(C)(C)C)cc1 (stereo unspecified) | 46.7 | Active | Active |
